The results in this text go back to patent publication US20260000079A1, “COMPOSITIONS AND METHODS FOR MODULATING IMMUNITY IN PLANTS” (BOYCE THOMPSON INSTITUTE FOR PLANT RESEARCH, INC., priority 2019, published 2026).

Molecules are shown by their SMILES.

For series [1], the system named is Pseudomonas syringae DC3000. As to the kind of experiment: Bacterial growth assay in ascr #18-pretreated Arabidopsis. The series is classed as in vivo, Pseudomonas syringae pv. tomato. As to conditions: 1 μM, 24 hours pretreatment; acx1acx5 and wildtype Arabidopsis. The method, then:
FIG. 4A provides a schematic of the experimental designs for assessing activation of defense pathways and resistance to nematodes and bacteria. […] Bacterial growth was assayed 3 days post inoculation. Data are averages±s.d. (n=17). […] Arabidopsis seedlings were treated with buffer or the indicated concentrations of ascr #18 for 48 hours before inoculation with approximately 300 freshly hatched M. incognita J2 larvae. The numbers of root galls of infected plants were counted 6 weeks post inoculation. Data are averages±s.d. (n≥15). […] Larvae touching root tips (FIG. 4D) or the whole area of roots (FIG. 4E) were counted at 6 hours post seedling transfer. […] Transcript levels were determined by qRT-PCR and plotted as relative fold-change compared to mock treated plants. […]
Given the rapid conversion of ascr #18 into shorter-chained ascarosides via pβo, the inventors investigated whether metabolism of the pathogen-produced compound ascr #18 produced by plant pathogenic nematodes is required for the activation of plant defense responses and resistance to other non-nematode pathogens. […] To test whether ascaroside metabolism plays a role in ascr #18-mediated enhanced resistance to a bacterial pathogen, the effect of ascr #18 treatment on infection with Pseudomonas syringae DC3000 was evaluated in the acx1acx5 mutant and wildtype Arabidopsis.

The test system of a further series is tomato leaves. The experiment in a line: LC-MS analysis of tomato leaves infiltrated with ascr #18. The series is classed as in vivo, Solanum lycopersicum. As to conditions: 4-week old tomato plants infiltrated with 1 μM ascr #18. The source says: FIG. 2A provides LC-MS analysis of tomato roots treated with ascr #18 or ^13C2-labeled ascr #18. Plants treated with ^13C2-labeled ascr #18 show peaks at 333.21932 and 249.12542, representing [M-H]^− of ^13C2-ascr #18 and ^13C2-ascr #9, but not at 331.21261 and 247.11871, which correspond to [M-H]^− of ascr #18 and ascr #9, and vice versa. Structures of ascr #18 and ascr #9 indicating the positions of the ^13C2-label are shown above ion chromatograms. Peaks marked with an asterisk represent unrelated peaks. FIGS. 2B and 2C provide graphs showing the relative abundances of ascr #18 and ascr #9, respectively, as measured by LC-MS. Four-week old Arabidopsis leaves were infiltrated with 1 μM ascr #18, and leaf tissue were harvested for LC-MS analyses over a period of 96 hours post infiltration of ascr #18. Data are averages±SEM (n=3). FIG. 2D provides LC-MS analyses of tomato leaves infiltrated with 1 μM ascr #18. Tissues were collected over a 12 hour period. Abundances of ascr #18 and ascr #9 are shown as the peak area, as measured by LC-MS. […] To test whether microbes are required for the observed metabolic transformations, leaves of 4-week old Arabidopsis plants were directly infiltrated with ascr #18 and leaf tissue was subsequently harvested for analysis by LC-MS as above. […]

As for `CC1O[C@@H](O[C@@H](C)CCCCCCCCC(=O)O)C(O)C[C@H]1O` (stereo in doubt) [ascr #18, (10R)-(3′R,5′R-dihydroxy-6′S-methyl-(2H)-tetrahydropyran-2-yloxy)-undecanoic acid], the “protection against P. syringae infection (bacterial growth 3 days post inoculation)” value in series [1] is recorded as “comparable levels of protection”.
On to `C[C@H](CCC(=O)O)O[C@@H]1O[C@@H](C)[C@H](O)C[C@H]1O` [ascr #9], for which, in the series on tomato leaves, the “formation of ascr #9 in leaves” value is recorded as “observed”.
